Results on two compounds are retold here after publication PMC3641841 (2010).

In the test the test system is Oxytricha Nova quadruplex (GGGGTTTTGGGG)2 (DNA, G4) GGGGTTTTGGGG
The test can be described thus: ITC. As to conditions: 10 mM sodium cacodylate, 0.5 mM EDTA, pH 7.0, 20 °C.

As for `NC[C@@H]1O[C@H](O[C@H]2[C@@H](O)[C@H](O[C@@H]3[C@@H](O)[C@H](N)C[C@H](N)[C@H]3O[C@H]3O[C@H](CN)[C@@H](O)[C@H](O)[C@H]3N)O[C@@H]2CO)[C@H](N)[C@@H](O)[C@@H]1O`, the Ka runs as follows: (K+ 90 mM) 1.15±0.08 × 10^5 M^−1; (Na+ 100 mM) 1.03±0.50 × 10^5 M^−1.
For the compound `NC[C@@H]1O[C@H](O[C@H]2[C@@H](O)[C@H](O[C@@H]3[C@@H](O)[C@H](N)C[C@H](N)[C@H]3O[C@H]3O[C@H](CO)[C@@H](O)[C@H](O)[C@H]3N)O[C@@H]2CO)[C@H](N)[C@@H](O)[C@@H]1O`, the Ka (K+ 90 mM) is recorded as 0.45±0.01 × 10^5 M^−1.
